Assay results from patent US20240245762A1, “METHODS AND PLATFORMS FOR PROMOTING ANTIGEN-SPECIFIC TOLERANCE IN THE TREATMENT OF TYPE 1 DIABETES AND GRAFT REJECTION AND COMPOSITIONS RELATING THERETO” (University of Maryland, College Park, priority 2021, published 2024).

Test system: Eα presentation in MHC-II
Experiment: Immunohistochemistry of Eα presentation in MHC-II (Y-ae) around HEVs of LNs
Assay type: in vivo, mouse
Conditions: three daily i.p. injections starting on the day of MP treatment
Source text: Immunohistochemistry and histology. The following antibodies were used for immunohistochemistry: ERTR7 (clone sc-73355), CD11c (cloneHL3), Laminin alpha4 (clone 775830), laminin alpha 5 (polyclonal), Foxp3 (clone NRRF-30), Vα2 TCR (clone B20.1). For immunohistochemistry, LNs and spleens were frozen with OCT compound (Scigen Tissue-Plus, Gardena, CA). Frozen sections were cut at 6 μm, fixed with cold acetone, blocked with 5% goat or donkey serum (Jackson ImmunoResearch, West Grove, PA) and incubated with the indicated antibodies and DAPI. […] Images were acquired with a Nikon Eclipse 700 (Nikon, Melville, NY, USA) and analyzed with Volocity image analysis software (Perkin Elmer, Waltham, MA). The positive staining area percentage was quantified based on at least three independent experiments with 3 sections per LN and 3-5 fields/section.
Subsequently, we directly investigated the trafficking and presentation of antigen from MPs in […] LNs using Y-ae, a recently-developed antibody tool. […] At 2 days, Eα presentation localized with HEVs was detected in treated LNs (FIG. 12f), and increased by day 6 (FIG. 12g). […]

CCCCCCCCc1ccc(CCC(N)(CO)CO)cc1 [FTY720]
effect on Eα presentation after Eα MP or Eα/rapamycin MP treatment: did not significantly affect Eα presentation
